{"source": "patent US12404294B2", "about": "“Glycolipopeptide biosurfactants” (Croda International Plc, priority 2016, dated 2025)", "key": {"[1]": {"tested_on": "BJ fibroblast cells ATCC CRL-2522", "experiment": "Cytotoxicity testing, alamarBlue, BJ fibroblasts", "type": "cell-based, human", "details": "24 h treatment; for BJ (MIC90): 90% of growth inhibition; for IC50: Homo sapiens, Fibroblast", "experimental": "(§1) To evaluate the safety profile of the glycolipopeptides, cytotoxicity testing was conducted against two normal human cell lines, BJ fibroblast cells ATCC CRL-2522 and adult epidermal keratinocytes (HEKa; Life Technologies, Carlsbad, CA, USA). […] Life Technologies, Carlsbad, CA, USA) and 50 μg/mL gentamicin (Sigma-Aldrich, St. Louis, MO, USA). Cells were cultured in […]^2 cell culture flasks and incubated at 37° C. in a humidified atmosphere of 5% CO2. For BJ fibroblasts culture media was refreshed every two to three days and cells were not allowed to exceed 80% confluence. […] At 80% confluence, the cells were counted, diluted to 10,000 cells/well in growth medium lacking antibiotics and 90 μL of cell suspension was transferred into the wells of 96-well treated cell culture plates. The plates were incubated as before to allow cells to adhere to the plates for 24 h before treatment. DMSO was used as the vehicle at a final concentration of 1%. […] The fibroblasts and HEKa cells were incubated as previously described for 24 h. All samples were tested in triplicate. […] AlamarBlue (Life Technologies, Carlsbad, CA, USA) was added to each well 24 h after treatment (10% v/v). Fluorescence (560/12 excitation, 590 nm emission) was monitored using a Varioskan Flash Multimode plate reader both at time zero and 4 h after the addition of alamarBlue. After subtraction of fluorescence at time zero from 4 h readings the percentage of cell viability relative to vehicle control wells was calculated."}, "[2]": {"tested_on": "adult epidermal keratinocytes (HEKa)", "experiment": "Cytotoxicity testing, alamarBlue, HEKa cells", "type": "cell-based, human", "details": "24 h treatment; for HEKa (MIC90): 90% of growth inhibition; for IC50: Homo sapiens, HEKa", "experimental": "as §1"}, "[3]": {"experiment": "Critical micelle concentration and surface tension of water, Du Nouy method (Kibron Delta-8 microtensiometer)", "type": "physicochemical", "details": "for CMC: degassed deionized water, 24-25° C.; for Minimum Surface Tension: surface tension of water at CMC (water 72 mN/m)", "experimental": "As summarized in Table 1, the critical micelle concentrations (CMCs) of NB-RLP1006, NB-RLP978, NB-RLP860, and NB-RLP-1048B were determined by the Du Nouy method utilizing a Kibron Delta-8 multichannel microtensiometer (Kibron Inc., Helsinki, Finland). All samples were prepared in degassed deionized water (Millipore, Etobicoke, ON, CA) at concentrations ranging from 0 to 2.0 mM. All measurements were recorded between 24 and 25° C. and performed in duplicate. The critical micelle concentration of both NB-RLP1006 and NB-RLP978 was 0.20 mM (0.02 wt %). […] The surface activity of NB-RLP1006 was compared to rhamnolipids A and B, which were purified from a commercially available rhamnolipid mixture (R90; AGAE Technologies, Corvallis, OR, USA) by reversed-phase HPLC."}, "[4]": {"experiment": "Aqueous solubility (remark)", "type": "physicochemical", "details": "in words"}, "[5]": {"experiment": "Characteristic curvature (Cc) by HLD-NAC model, electrolyte scan with SDHS/toluene", "type": "physicochemical", "details": "NB-RLP1006/SDHS mixtures, toluene oil phase, NaCl 0 to 6.0% (w/v)", "experimental": "The characteristic curvature (Cc) of NB-RLP1006 was determined using the hydrophilic-lipophilic difference-net average curvature (HLD-NAC) model to calculate the shift in chemical potential when NB-RLP1006 is transferred from the oil to the aqueous phase as a function of salinity by the following general equation: HLD=F(S)−k×EACN+F(A)−∝×ΔT+Cc where F(S) is a function of salinity, k is a coefficient equal to 0.17, EACN (effective alkane carbon number) is the number of carbons in the alkane oil phase, α is a coefficient dependent on the type of surfactant (ionic, ethoxylates, etc), and ΔT is the effect of temperature. Four mixtures of NB-RLP1006 and sodium dihexyl sulfosuccinate (SDHS) were prepared with a total surfactant concentration of 1.8 mg/mL using the following NB-RLP1006/SDHS ratios: 0, 12, 24, and 40 wt % NB-RLP1006. An electrolyte scan was performed for each mixture by varying the NaCl concentration from 0 to 6.0% (w/v). Each mixture was added to an equal volume of toluene, which constituted the oil phase, and shaken vigorously. […] A plot of the NB-RLP1006/SDHS molar ratios versus S* was generated and Cc was calculated from the line of best fit. The Cc value for NB-RLP1006 was determined to be +5.2, a value that reflects the hydrophobic nature of this biosurfactant."}, "[6]": {"experiment": "Drop dilution test for type of emulsion", "type": "physicochemical", "details": "1 mg/mL in deionized water with equal volume of kerosene", "experimental": "(§2) The emulsifying properties of NB-RLP1006 were determined using the emulsification index as described above. […] The emulsification of NB-RLP1006 is pH-dependent with E24 values of 8, 38, and 31% at pH 3, 6, and 8, respectively. The type of emulsion formed by NB-RLP1006 (e.g. oil-in-water or water-in-oil) was determined using the drop dilution test. An emulsion was formed by vigorously mixing a 1 mg/mL solution of RLP1006 in deionized water with an equal volume of kerosene for 1 min. A portion (20 μL) of the emulsion was transferred to 0.5 mL of deionized water and 0.5 mL of kerosene and dilution of the emulsion in each liquid was monitored."}, "[7]": {"experiment": "Emulsification activity assay (emulsification index E24, kerosene)", "type": "physicochemical", "experimental": "V. paradoxus RKNM-096 was identified as a biosurfactant producer in a screen aimed at identifying bacterial producers of biosurfactants with emulsifying properties. The assay utilized to identify bacterial producers of biosurfactants was the emulsification activity assay. In this assay cultures were grown in 10 mL of liquid medium in 25 mm×150 mm glass tubes at 30° C. with shaking at 200 rpm for 5 days. After 5 days, the cells were removed by centrifugation and 3.5 mL of cell free culture broth was mixed with 3.5 mL of kerosene in a 13 mm×100 mm test tube with a screw cap tube. The tubes were vortexed for two minutes and then allowed to stand overnight at room temperature after which the height of the emulsion (hemuls) and the total height (htotal) of the liquid in the tube were measured. The emulsification index (E24) was calculated using the equation E24=hemuls/htotal×100%.\nas §2"}}}
{"compound": "CCCCCCCC(CC(=O)NC(CO)C(=O)NC(CO)CC(C)C)OC(=O)CC(CCCCCCC)OC(=O)CC(CCCCCCC)OC1OC(C)C(O)C(O)C1O", "note": "(stereo not drawn) [NB-RLP860]", "values": [{"measurement": "BJ (MIC90)", "setting": "[1]", "result": 32, "unit": "µg/mL"}, {"measurement": "IC50", "setting": "[1]; error is standard deviation", "result": "16.3 ± 0.3", "unit": "µg/mL"}, {"measurement": "HEKa (MIC90)", "setting": "[2]", "result": 128, "unit": "µg/mL"}, {"measurement": "IC50", "setting": "[2]; error is standard deviation", "result": "15.5 ± 1.6", "unit": "µg/mL"}, {"measurement": "CMC", "setting": "[3]", "result": 0.07, "unit": "wt %"}, {"measurement": "CMC", "setting": "[3]; duplicate", "result": 0.85, "unit": "mM"}, {"measurement": "Minimum Surface Tension", "setting": "[3]", "result": 36.2, "unit": "mN/m"}, {"measurement": "aqueous solubility", "setting": "[4]", "result": "poor aqueous solubility"}]}
{"compound": "CCCC(CC(=O)NC(CO)C(=O)NC(CO)CC(C)C)OC(=O)CC(CCC)OC(=O)CC(CCC)OC1OC(C)C(O)C(OC2OC(C)C(O)C(O)C2O)C1O", "note": "(stereo not drawn) [NB-RLP978]", "values": [{"measurement": "CMC", "setting": "[3]", "result": 0.02, "unit": "wt %"}, {"measurement": "CMC", "setting": "[3]; duplicate", "result": 0.20, "unit": "mM"}, {"measurement": "Minimum Surface Tension", "setting": "[3]", "result": 35.5, "unit": "mN/m"}]}
{"compound": "CCCCCCCC(CC(=O)NC(CO)C(=O)NC(CO)CC(C)C)OC(=O)CC(CCCCCCC)OC(=O)CC(CCCCCCC)OC1OC(C)C(O)C(OC2OC(C)C(O)C(O)C2O)C1O", "note": "(stereo not drawn) [NB-RLP1006]", "values": [{"measurement": "BJ (MIC90)", "setting": "[1]", "result": 32, "unit": "µg/mL"}, {"measurement": "IC50", "setting": "[1]; error is standard deviation", "result": "19.5 ± 2.4", "unit": "µg/mL"}, {"measurement": "characteristic curvature (Cc)", "setting": "[5]", "result": "+5.2"}, {"measurement": "HEKa (MIC90)", "setting": "[2]", "result": "64 to 128", "unit": "µg/mL"}, {"measurement": "IC50", "setting": "[2]; error is standard deviation", "result": "15.5 ± 1.7", "unit": "µg/mL"}, {"measurement": "type of emulsion formed", "setting": "[6]", "result": "oil-in-water (o/w) and o/w"}, {"measurement": "emulsification index (E24)", "setting": "[7]; 1 mg/mL in deionized water", "result": 53, "unit": "%"}, {"measurement": "emulsification index (E24)", "setting": "[7]; pH 3", "result": 8, "unit": "%"}, {"measurement": "emulsification index (E24)", "setting": "[7]; pH 6", "result": 38, "unit": "%"}, {"measurement": "emulsification index (E24)", "setting": "[7]; pH 8", "result": 31, "unit": "%"}, {"measurement": "CMC", "setting": "[3]", "result": 0.02, "unit": "wt %"}, {"measurement": "CMC", "setting": "[3]; duplicate", "result": 0.20, "unit": "mM"}, {"measurement": "Minimum Surface Tension", "setting": "[3]", "result": 35.5, "unit": "mN/m"}]}
{"compound": "CCCCCCCC(CC(=O)NC(CO)C(=O)NC(CO)CC(C)C)OC(=O)CC(CCCCCCC)OC(=O)CC(CCCCCCC)OC1OC(C)C(O)C(OC2OC(C)C(O)C(OC(C)=O)C2O)C1O", "note": "(stereo not drawn) [NB-RLP1048B]", "values": [{"measurement": "BJ (MIC90)", "setting": "[1]", "result": 32, "unit": "µg/mL"}, {"measurement": "IC50", "setting": "[1]; error is standard deviation", "result": "18.7 ± 1.6", "unit": "µg/mL"}, {"measurement": "HEKa (MIC90)", "setting": "[2]", "result": "64 to 128", "unit": "µg/mL"}, {"measurement": "IC50", "setting": "[2]; error is standard deviation", "result": "19.3 ± 4", "unit": "µg/mL"}, {"measurement": "CMC", "setting": "[3]", "result": 0.09, "unit": "wt %"}, {"measurement": "CMC", "setting": "[3]; duplicate", "result": 0.85, "unit": "mM"}, {"measurement": "Minimum Surface Tension", "setting": "[3]", "result": 36.9, "unit": "mN/m"}, {"measurement": "aqueous solubility", "setting": "[4]", "result": "poor aqueous solubility"}]}
{"compound": "Zinc pyrithione [reference compound]", "values": [{"measurement": "BJ (MIC90)", "setting": "[1]", "result": 4, "unit": "µg/mL"}, {"measurement": "BJ (IC50)", "setting": "[1]; error is standard deviation", "result": "2.2 ± 0.3", "unit": "µg/mL"}, {"measurement": "HEKa (MIC90)", "setting": "[2]", "result": 1, "unit": "µg/mL"}, {"measurement": "HEKa (IC50)", "setting": "[2]; error is standard deviation", "result": "0.20 ± 0.001", "unit": "µg/mL"}]}
